{"source": "ChEMBL document CHEMBL1152190", "about": "“Synthesis of spiro-1,2-dioxolanes and their activity against Plasmodium falciparum” (Bioorg Med Chem Lett, 2008)", "key": {"[1]": {"system": "Plasmodium falciparum", "test": "Antimalarial activity as reduced parasitaemia after 72 hrs against chloroquine-sensitive Plasmodium falciparum 3D7 in human erythrocytes by DAPI stain", "format": "functional, organism-based", "conditions": "3D7, 72 h"}, "[2]": {"system": "Plasmodium falciparum", "test": "Antimalarial activity as reduced parasitaemia after 72 hrs against chloroquine-resistant Plasmodium falciparum Dd2 in human erythrocytes by DAPI stain", "format": "functional, organism-based", "conditions": "Dd2, 72 h"}, "[3]": {"system": "Heme", "test": "Inhibition of heme crystallization by parasite-independent assay", "format": "functional"}, "[4]": {"system": "Plasmodium falciparum", "test": "Antimalarial activity against Plasmodium falciparum K1", "format": "functional, organism-based"}, "[5]": {"system": "Plasmodium falciparum", "test": "Antimalarial activity against Plasmodium falciparum NF54", "format": "functional, organism-based"}, "[6]": {"system": "Plasmodium falciparum", "test": "Antimalarial activity as reduced parasitaemia after 72 hrs against chloroquine-resistant Plasmodium falciparum 7G8 in human erythrocytes by DAPI stain", "format": "functional, organism-based", "conditions": "7G8, 72 h"}, "[7]": {"system": "Plasmodium falciparum", "test": "Antimalarial activity as reduced parasitaemia after 72 hrs against chloroquine-resistant Plasmodium falciparum FCB in human erythrocytes by DAPI stain", "format": "functional, organism-based"}, "[8]": {"system": "Plasmodium falciparum", "test": "Antimalarial activity as reduced parasitaemia after 72 hrs against chloroquine-resistant Plasmodium falciparum 106/1 in human erythrocytes by DAPI stain", "format": "functional, organism-based", "conditions": "106/1, 72 h"}}, "note": "Active and inactive are the calls of the source. The rule behind the calls is not given here.", "data": [{"smiles": "CC1CCC2(CC1)CC(C)(CCOCc1ccccc1)OO2", "note": "(mixture of isomers)", "values": [{"measurement": "EC50", "setting": "[1]", "value": 545, "unit": "nM"}, {"measurement": "EC50", "setting": "[2]", "value": 59, "unit": "nM"}, {"measurement": "Activity", "setting": "[3]", "value": "inactive"}]}, {"smiles": "C1CCC2(CC1)CC1(OO2)C2CC3CC(C2)CC1C3", "note": "(stereo unspecified)", "values": [{"measurement": "Activity", "setting": "[3]", "value": "inactive"}, {"measurement": "EC50", "setting": "[4]", "value": "> 2000", "unit": "nM"}, {"measurement": "EC50", "setting": "[5]", "value": "> 2000", "unit": "nM"}]}, {"smiles": "CC1(CC(=O)NCc2ccc(-c3ccccc3)cc2)CC2(CCCCC2)OO1", "note": "(stereo unspecified)", "values": [{"measurement": "EC50", "setting": "[1]", "value": 100, "unit": "nM"}, {"measurement": "EC50", "setting": "[2]", "value": 77, "unit": "nM"}, {"measurement": "Activity", "setting": "[3]", "value": "inactive"}]}, {"smiles": "CC1CCCC2(C1)CC(C)(CC(=O)O)OO2", "note": "(mixture of isomers)", "values": [{"measurement": "EC50", "setting": "[1]", "value": "> 1000", "unit": "nM"}, {"measurement": "EC50", "setting": "[2]", "value": "> 1000", "unit": "nM"}]}, {"smiles": "C[C@@H]1CC[C@H]2[C@@H](C)C(=O)O[C@@H]3O[C@@]4(C)CC[C@@H]1[C@]32OO4", "note": "[ARTEMISININ]", "values": [{"measurement": "EC50", "setting": "[1]", "value": 4, "unit": "nM"}, {"measurement": "EC50", "setting": "[2]", "value": 4, "unit": "nM"}, {"measurement": "EC50", "setting": "[6]", "value": 48, "unit": "nM"}, {"measurement": "EC50", "setting": "[7]", "value": 8, "unit": "nM"}, {"measurement": "EC50", "setting": "[8]", "value": 13, "unit": "nM"}]}, {"smiles": "C1CCC2(CC1)OOC1(O2)C2CC3CC(C2)CC1C3", "note": "(stereo unspecified)", "values": [{"measurement": "EC50", "setting": "[4]", "value": 3.67, "unit": "nM"}, {"measurement": "EC50", "setting": "[5]", "value": 5.3, "unit": "nM"}]}, {"smiles": "O=C(CN1CCC2(CCCCC2)C1)NCCNc1ccnc2cc(Cl)ccc12", "values": [{"measurement": "EC50", "setting": "[1]", "value": 69, "unit": "nM"}, {"measurement": "EC50", "setting": "[2]", "value": 78, "unit": "nM"}, {"measurement": "Activity", "setting": "[3]", "value": "inactive"}, {"measurement": "EC50", "setting": "[6]", "value": 91, "unit": "nM"}, {"measurement": "EC50", "setting": "[7]", "value": 80, "unit": "nM"}, {"measurement": "EC50", "setting": "[8]", "value": 53, "unit": "nM"}]}, {"smiles": "CC1(CC(=O)NCC2C3CC4CC(C3)CC2C4)CC2(CCCCC2)OO1", "note": "(stereo unspecified)", "values": [{"measurement": "EC50", "setting": "[1]", "value": 81, "unit": "nM"}, {"measurement": "EC50", "setting": "[2]", "value": 57, "unit": "nM"}, {"measurement": "Activity", "setting": "[3]", "value": "inactive"}]}, {"smiles": "COCCC1(C)CC2(CCCC(C)C2)OO1", "note": "(mixture of isomers)", "values": [{"measurement": "EC50", "setting": "[1]", "value": 69, "unit": "nM"}, {"measurement": "EC50", "setting": "[2]", "value": 62, "unit": "nM"}, {"measurement": "Activity", "setting": "[3]", "value": "inactive"}]}, {"smiles": "CC1(CCOCc2ccccc2)CC2(CCCCC2)OO1", "note": "(stereo unspecified)", "values": [{"measurement": "EC50", "setting": "[1]", "value": 141, "unit": "nM"}, {"measurement": "EC50", "setting": "[2]", "value": 146, "unit": "nM"}, {"measurement": "Activity", "setting": "[3]", "value": "inactive"}]}, {"smiles": "CCNC(=O)CC1(C)CC2(CCCCC2)OO1", "note": "(stereo unspecified)", "values": [{"measurement": "EC50", "setting": "[1]", "value": 485, "unit": "nM"}, {"measurement": "EC50", "setting": "[2]", "value": 99, "unit": "nM"}, {"measurement": "EC50", "setting": "[6]", "value": 83, "unit": "nM"}, {"measurement": "EC50", "setting": "[7]", "value": 356, "unit": "nM"}, {"measurement": "EC50", "setting": "[8]", "value": 142, "unit": "nM"}]}, {"smiles": "CC(C)(N)CNC(=O)CC1(C)CC2(CCCCC2)OO1", "note": "(stereo unspecified)", "values": [{"measurement": "EC50", "setting": "[1]", "value": 61, "unit": "nM"}, {"measurement": "EC50", "setting": "[2]", "value": 108, "unit": "nM"}, {"measurement": "Activity", "setting": "[3]", "value": "inactive"}]}, {"smiles": "CC1CCCC2(C1)CC(C)(CCO)OO2", "note": "(mixture of isomers)", "values": [{"measurement": "EC50", "setting": "[1]", "value": 241, "unit": "nM"}, {"measurement": "EC50", "setting": "[2]", "value": 149, "unit": "nM"}, {"measurement": "Activity", "setting": "[3]", "value": "inactive"}]}, {"smiles": "CC1CCCC2(C1)CC(C)(CCOCc1ccccc1)OO2", "note": "(mixture of isomers)", "values": [{"measurement": "EC50", "setting": "[1]", "value": 92, "unit": "nM"}, {"measurement": "EC50", "setting": "[2]", "value": 151, "unit": "nM"}, {"measurement": "Activity", "setting": "[3]", "value": "inactive"}]}, {"smiles": "CCN(CC)CCCC(C)Nc1ccnc2cc(Cl)ccc12", "note": "(stereo unspecified) [CHLOROQUINE]", "values": [{"measurement": "EC50", "setting": "[1]", "value": 7, "unit": "nM"}, {"measurement": "EC50", "setting": "[2]", "value": 66, "unit": "nM"}, {"measurement": "EC50", "setting": "[6]", "value": 46, "unit": "nM"}, {"measurement": "EC50", "setting": "[7]", "value": 52, "unit": "nM"}, {"measurement": "EC50", "setting": "[8]", "value": 14, "unit": "nM"}]}, {"smiles": "NCCNc1ccnc2cc(Cl)ccc12", "values": [{"measurement": "EC50", "setting": "[1]", "value": 57, "unit": "nM"}, {"measurement": "EC50", "setting": "[2]", "value": 155, "unit": "nM"}, {"measurement": "Activity", "setting": "[3]", "value": "inactive"}]}, {"smiles": "CC1(CCOCc2ccccc2)CC2(CCC(C(C)(C)C)CC2)OO1", "note": "(mixture of isomers)", "values": [{"measurement": "EC50", "setting": "[1]", "value": 86, "unit": "nM"}, {"measurement": "EC50", "setting": "[2]", "value": 74, "unit": "nM"}, {"measurement": "Activity", "setting": "[3]", "value": "inactive"}]}, {"smiles": "C1CCC2(CC1)CC1(CCCCC1)OO2", "values": [{"measurement": "EC50", "setting": "[4]", "value": 195, "unit": "nM"}, {"measurement": "EC50", "setting": "[5]", "value": 523, "unit": "nM"}]}, {"smiles": "CC(=O)OCCC1(C)CC2(CCCC(C)C2)OO1", "note": "(mixture of isomers)", "values": [{"measurement": "EC50", "setting": "[1]", "value": 109, "unit": "nM"}, {"measurement": "EC50", "setting": "[2]", "value": 114, "unit": "nM"}, {"measurement": "Activity", "setting": "[3]", "value": "inactive"}]}, {"smiles": "CC1(CC(=O)NCCNc2ccnc3cc(Cl)ccc23)CC2(CCCCC2)OO1", "note": "(stereo unspecified)", "values": [{"measurement": "EC50", "setting": "[1]", "value": 5, "unit": "nM"}, {"measurement": "EC50", "setting": "[2]", "value": 6, "unit": "nM"}, {"measurement": "Activity", "setting": "[3]", "value": "inactive"}, {"measurement": "EC50", "setting": "[6]", "value": 8, "unit": "nM"}, {"measurement": "EC50", "setting": "[7]", "value": 16, "unit": "nM"}, {"measurement": "EC50", "setting": "[8]", "value": 22, "unit": "nM"}]}, {"smiles": "CC(C)(CO)CC1(C)C[C@]2(CC[C@H](C)CC2)OO1", "note": "(stereo partly specified)", "values": [{"measurement": "EC50", "setting": "[1]", "value": 332, "unit": "nM"}, {"measurement": "EC50", "setting": "[2]", "value": 897, "unit": "nM"}]}]}
